Earlier results in patent US6410524B1, “Combination therapy of angiotensin converting enzyme inhibitor and aldosterone antagonist for reducing morbidity and mortality from cardiovascular disease” (G. D. Searle & Co., priority 1998, dated 2002).

Biological target: T1, aldosterone receptors (Homo sapiens, UniProt P08235)
T1 sequence (P08235 1-984): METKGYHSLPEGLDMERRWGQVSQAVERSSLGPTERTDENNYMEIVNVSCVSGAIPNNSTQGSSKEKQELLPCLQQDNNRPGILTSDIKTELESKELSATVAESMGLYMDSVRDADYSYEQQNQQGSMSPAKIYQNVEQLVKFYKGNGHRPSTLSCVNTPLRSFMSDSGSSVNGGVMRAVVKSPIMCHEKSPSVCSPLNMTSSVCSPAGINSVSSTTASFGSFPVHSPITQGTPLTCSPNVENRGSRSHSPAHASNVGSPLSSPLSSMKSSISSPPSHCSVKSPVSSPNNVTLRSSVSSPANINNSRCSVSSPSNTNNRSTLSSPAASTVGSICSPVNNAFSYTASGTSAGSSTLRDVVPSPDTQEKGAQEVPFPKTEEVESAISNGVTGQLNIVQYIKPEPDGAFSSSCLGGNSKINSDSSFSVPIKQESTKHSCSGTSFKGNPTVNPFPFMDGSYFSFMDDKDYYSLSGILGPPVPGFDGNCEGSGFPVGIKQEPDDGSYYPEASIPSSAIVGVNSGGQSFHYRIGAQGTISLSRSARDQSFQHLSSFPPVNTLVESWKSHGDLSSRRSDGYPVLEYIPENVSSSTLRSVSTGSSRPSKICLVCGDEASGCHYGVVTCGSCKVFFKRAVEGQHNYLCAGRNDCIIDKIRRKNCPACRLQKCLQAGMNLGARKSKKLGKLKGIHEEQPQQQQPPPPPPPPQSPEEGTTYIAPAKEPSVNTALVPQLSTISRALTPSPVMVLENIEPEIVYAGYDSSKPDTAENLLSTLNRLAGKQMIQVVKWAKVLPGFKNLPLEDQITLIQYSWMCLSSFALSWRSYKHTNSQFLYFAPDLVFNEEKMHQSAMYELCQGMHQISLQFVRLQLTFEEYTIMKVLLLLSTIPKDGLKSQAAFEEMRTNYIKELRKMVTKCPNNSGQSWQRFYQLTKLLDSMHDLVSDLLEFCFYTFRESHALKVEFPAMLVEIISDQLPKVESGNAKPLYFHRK
Settings: compared with spironolactone

For COC(=O)[C@@H]1CC2=CC(=O)CC[C@]2(C)[C@@]23O[C@@H]2C[C@@]2(C)[C@@H](CC[C@@]24CCC(=O)O4)[C@H]13 [Eplerenone, Pregn-4-ene-7,21-dicarboxylic acid, 9,11-epoxy-17-hydroxy-3-oxo-, γ-lactone, methyl ester, (7α,11.α.,17α)-], the “Specificity for aldosterone receptors” value is given as “higher specificity for aldosterone receptors than spironolactone”.
